In US4472435A, “Benzophenone derivatives useful in treating heart failure” (Hoffman-La Roche Inc., priority 1980, dated 1984):

Tests used:
[1] = tested on: aldosterone; experiment: Aldosterone antagonism in adrenalectomised rats (urine volume, sodium and potassium excretion); format: in vivo, Female Holtzmann rats; details: for Volume (urine volume), in %, based on control animals / [K+] (potassium excretion), in %, based on control animals / [Na+] (sodium excretion), in %, based on control animals: 30 min before aldosterone s.c., adrenalectomised rats, 3 h urine, control = aldosterone only
Procedure: These aldosterone-antagonistic properties can be dmonstrated in adrenalectomized rats as illustrated hereinafter.
If compounds of formula I are administered to the animals before the treatment with aldosterone, then there is observed, in comparison with the animals which are treated only with aldosterone (control animals), a pronounced increase of the sodium excretion (i.e. the sodium retention caused by aldosterone is antagonised), whereas the potassium excretion and the urine volume are influenced to a lesser extent.
The standard experiment is carried out as follows:
Female Holtzmann rats (150-180 g) are bilaterally adrenalectomised 70 to 74 hours before the beginning of the experiment. After the operation, the animals receive a customary rat dry feed and 0.9% sodium chloride solution for drinking. 16-17 hours before the beginning of the experiment the feed is removed from the animals, but they can subsequently drink, as before, 0.9% sodium chloride solution ad libitum. At the beginning of the experiment the substance to be tested as an aldosterone-antagonist is administered to the animals by means of a stomach probe. 30 minutes later the animals receive a subcutaneous injection of […] of aldosterone. After a further 90 minutes, the urinary bladders of the animals are emptied by careful suprapubic pressure, whereupon the animals are placed individually in metabolic cages without food and without drink. The urine of the animals is then collected for 3 hours, whereupon their urinary bladders are once more emptied. The spontaneously excreted urine and the remaining urine obtained at the conclusion of the experiment by pressing-out the urinary bladders are collected in graduated centrifuge glasses. Sodium and potassium concentrations in the urine are determined with a flame photometer.
(§1) The following Table contains results obtained in the previously described experiment with representative compounds of general formula I. In this Table there are given for each of the compounds figuring therein the dosage administered (in mg/kg p.o.) as well as the percentage variation in the urine volume, the sodium excretion and the potassium excretion in comparison with the control animals (i.e. in comparison with the animals treated only with aldosterone). Moreover, the Table contains data concerning the acute toxicity of the compounds investigated (LD 50 in mg/kg in the case of single oral administration to mice).

[2] = Acute toxicity, single oral administration; details: mouse, in vivo, mice
Text: as §1

[3] = aldosterone in adrenalectomised rats, compared to untreated animals

| SMILES | LD50 [2] | Volume (urine volume), in %, based on control animals ([1]; 1 mg/kg p.o.) | [K+] (potassium excretion), in %, based on control animals ([1]; 1 mg/kg p.o.) | [Na+] (sodium excretion), in %, based on control animals ([1]; 1 mg/kg p.o.) | Volume (urine volume), in %, based on control animals ([1]; 0.1 mg/kg p.o.) | [K+] (potassium excretion), in %, based on control animals ([1]; 0.1 mg/kg p.o.) | [Na+] (sodium excretion), in %, based on control animals ([1]; 0.1 mg/kg p.o.) | further results |
| --- | --- | --- | --- | --- | --- | --- | --- | --- |
| C[C@]12CCC(=O)C=C1CC[C@@H]1[C@@H]2[C@@H](O)C[C@]2(C=O)[C@@H](C(=O)CO)CC[C@@H]12 [aldosterone, reference compound] |  |  |  |  |  |  |  | potassium excretion after aldosterone (in words) [1, 3]: increased potassium excretion; sodium excretion after aldosterone (in words) [1, 3]: pronounced reduction of the sodium excretion; urine volume after aldosterone (in words) [1, 3]: reduction of the excreted urine volume |
| CC(=NO)c1ccc(NC(=O)CN)c(C(=NO)c2ccccc2F)c1 [H, COCH2 NH2, OH, F, drawing 7, 2-amino-2'-[o-fluoro-α-(hydroxyimino)benzyl]-4'-[1-(hydroxyimino)ethyl]acetanilide] | > 5000 mg/kg | 156% | 102% | 327% |  |  |  | Volume (urine volume), in %, based on control animals ([1]; 0.01 mg/kg p.o.): 161%; [K+] (potassium excretion), in %, based on control animals ([1]; 0.01 mg/kg p.o.): 86%; [Na+] (sodium excretion), in %, based on control animals ([1]; 0.01 mg/kg p.o.): 215% |
| NCC(=O)Nc1ccc([N+](=O)[O-])cc1C(=NO)c1ccccc1Cl [H, COCH2 NH2, OH, Cl, NO2, 2-amino-2'-[o-chloro-α-(hydroxyimino)-benzyl]-4'-nitro-acetanilide] | > 5000 mg/kg |  |  |  | 114% | 99% | 211% |  |
| CN(C(=O)CN)c1ccc(N)cc1C(=NO)c1ccccc1Cl [CH3, COCH2 NH2, OH, Cl, NH2, 2,4'-diamino-2'-[o-chloro-α-(hydroxyimino)benzyl]-N-methylacetanilide] | > 5000 mg/kg | 155% | 94% | 254% |  |  |  |  |
| NCC(=O)Nc1ccc([N+](=O)[O-])cc1C(=NO)c1ccccc1 [H, COCH2 NH2, OH, H, NO2, 2-amino-2'-[α-(hydroxyimino)-benzyl]-4'-nitro-acetanilide] | > 5000 mg/kg |  |  |  | 152% | 97% | 230% |  |
